Test results published in patent US20260217708A1, “FUSED BENZAZEPINE DERIVATIVES FOR USE IN THE TREATMENT OF CANCER AND EPILEPSY” (UCB BIOPHARMA SRL, priority 2023, published 2026).

Key:
system Xc^− [1] = target: T1, system Xc^− (Homo sapiens, UniProt Q9UPY5); assay: Cystine-induced glutamate release assay; assay type: cell-based; parameters: endogenous in cells; host or cells: H4 cells; conditions: H4 cells, sodium-free HEPES buffer, 50 μM L-Cystine, 2 hours, Amplex Red glutamate readout; read-out: pIC50 Cystine-induced glutamate release assay (converted)
T1 sequence (Q9UPY5 1-501): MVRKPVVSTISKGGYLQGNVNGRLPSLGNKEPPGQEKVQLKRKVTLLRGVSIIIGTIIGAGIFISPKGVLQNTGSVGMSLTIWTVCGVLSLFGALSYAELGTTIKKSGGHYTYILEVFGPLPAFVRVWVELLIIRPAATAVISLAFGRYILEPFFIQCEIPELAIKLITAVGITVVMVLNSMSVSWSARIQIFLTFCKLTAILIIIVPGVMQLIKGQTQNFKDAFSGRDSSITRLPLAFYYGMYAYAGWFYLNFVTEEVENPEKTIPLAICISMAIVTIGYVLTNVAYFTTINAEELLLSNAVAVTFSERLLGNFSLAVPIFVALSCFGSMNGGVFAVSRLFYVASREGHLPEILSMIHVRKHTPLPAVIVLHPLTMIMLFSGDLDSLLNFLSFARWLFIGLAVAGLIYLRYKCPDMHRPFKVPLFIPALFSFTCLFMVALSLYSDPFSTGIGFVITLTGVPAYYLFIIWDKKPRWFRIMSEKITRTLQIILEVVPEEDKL
T1 sequence (P08195 1-529 partner): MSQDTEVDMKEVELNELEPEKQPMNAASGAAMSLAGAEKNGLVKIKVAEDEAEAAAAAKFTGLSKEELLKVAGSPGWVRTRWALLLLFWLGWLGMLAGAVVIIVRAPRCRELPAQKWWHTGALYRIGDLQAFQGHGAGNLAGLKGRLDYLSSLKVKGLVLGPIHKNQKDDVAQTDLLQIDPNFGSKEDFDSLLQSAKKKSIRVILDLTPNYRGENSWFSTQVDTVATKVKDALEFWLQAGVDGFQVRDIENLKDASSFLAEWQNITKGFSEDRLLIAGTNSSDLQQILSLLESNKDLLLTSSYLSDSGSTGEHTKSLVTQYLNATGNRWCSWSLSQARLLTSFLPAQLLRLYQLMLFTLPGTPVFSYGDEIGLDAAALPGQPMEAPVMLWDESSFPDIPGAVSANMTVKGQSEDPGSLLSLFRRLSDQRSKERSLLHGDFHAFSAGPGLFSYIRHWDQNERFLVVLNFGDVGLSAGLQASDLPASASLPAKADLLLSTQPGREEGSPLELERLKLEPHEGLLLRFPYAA
From the text: (§1) The effect of compounds of Formula (I) on the system Xc^− functionality was examined in two independent cell assays: (i) measurement of cystine-induced glutamate release; and (ii) measurement of [^14C]L-Cystine uptake.
(§2) As described above, System Xc^−, also known as the cystine/glutamate antiporter, is an amino acid transporter that mediates the extrusion of intracellular L-glutamate outside the cell and the uptake of extracellular L-cystine into the cell.
(§3) By measuring respectively, the concentration of glutamate released outside the cell and the L-cystine uptaken in the cell, with increasing concentrations of compounds of formula (I) according to the present invention, the efficacy of said compounds to inhibit the System Xc^− function can be evaluated.
(§4) The efficacy of the compounds to inhibit system Xc^− is represented by measuring the IC50 which corresponds to the concentration of compound necessary to inhibit 50% of the signals from the two control groups; DMSO 1% and Erastin 50 μM in the respective assays. pIC50 values correspond to −log of the IC50 in Molar.
Measurement of cystine-induced glutamate release indicates levels of glutamate (outside of the cell) that are dependent on system Xc^− antiporter function. Upon the addition of L-Cystine to H4 cells, intracellular glutamate is counter-transported and exported in the supernatant.
In this assay, the medium is devoid of sodium to prevent the transport of glutamate by sodium-dependent excitatory amino acid transporters (EAATs). H4 cells were plated on 384-well culture plate at 1×10^4 cells/well in Dulbecco's Modified Eagle Medium (DMEM) with L-glutamine, penicillin/streptomycin and 10% fetal bovine serum (all from ThermoFisher Scientific) and incubated in a humidified CO2 incubator at 37° C. After 2 days, cells were washed 4 times with prewarmed sodium-free HEPES buffer (contents in mM: HEPES 10, KCl 5.4, CaCl2 2.5, MgCl2 1, KH2PO4 0.4, D-Glucose 5, Choline chloride 140), pH 7.4. Glutamate release was induced by addition of 50 μM of L-Cystine (Sigma-Aldrich), together with a test compound of Formula (I) at 1% final DMSO concentration. After 2 hours of incubation in the culture incubator, supernatants were transferred to a low-binding polypropylene 384-well plate to determine L-glutamate concentration using Amplex™ Red Glutamic Acid Assay Kit (ThermoFisher Scientific). Briefly, 10 μL of Amplex™ Red working solution was added to 10 μL of the supernatant, then the mixture was incubated for 30 min at 37° C. Fluorescence intensity was measured by EnVision microplate reader (PerkinElmer).

system Xc^− [2] = target: T1, system Xc^−; assay: [^14C]L-Cystine uptake assay; assay type: cell-based; parameters: endogenous in cells; host or cells: H4 cells; conditions: H4 cells, sodium-free HEPES buffer, 0.5 μM L-[14C]Cystine and 4.5 μM L-Cystine, 1 hour at 37° C.; read-out: pIC50 [^14C] L-Cystine uptake assay (converted)
From the text: as §1, §2, §3, §4
In this assay, the medium is devoid of sodium to prevent the transport of glutamate by sodium-dependent excitatory amino acid transporters (EAATs). H4 cells were plated on a 96-well CytoStar-T scintillating microplate (PerkinElmer) at 5×10^4 cells/well in the medium described above. After 1 day, cells were washed one time with the sodium-free HEPES buffer and preincubated with test compounds of Formula (I) (1% final DMSO) for 15 min. Uptake was initiated by adding 0.5 μM L-[1,2, 1′,2′-^14C]Cystine (0.02 mCi/mL, PerkinElmer, Waltham, US) and 4.5 μM L-Cystine (Sigma-Aldrich). After 1 hour at 37° C., plates were counted in a MicroBeta^2 microplate counter (PerkinElmer).

SMILES | IC50 (system Xc^− [1]) [nM] | IC50 (system Xc^− [2]) [nM]
Cc1cc2c(c(Cl)n1)-c1cccnc1C(C)C(=O)N2CC(=O)Nc1ccc(C(F)F)cc1 (single isomer, unassigned) [#116, 2-[3-chloro-5,10-dimethyl-9-oxo-4,8,12-triazatricyclo[9.4.0.0^2,7]pentadeca-1(11),2(7),3,5,12,14-hexaen-8-yl]-N-[4-(difluoromethyl)phenyl]acetamide] | < 15.8 | < 15.8
Cc1cc2c(c(Cl)n1)-c1cccnc1C(C)C(=O)N2CC(=O)Nc1ccc(Cl)c(F)c1 (single isomer, unassigned) [#117, 2-[3-chloro-5,10-dimethyl-9-oxo-4,8,12-triazatricyclo[9.4.0.0^2,7]pentadeca-1(15),2(7),3,5,11,13-hexaen-8-yl]-N-(4-chloro-3-fluorophenyl)acetamide] | < 15.8 | < 15.8
Cc1cc2c(n(C)c1=O)-c1ccccc1C(C)C(=O)N2CC(=O)Nc1ccc(C(F)(F)F)cc1 (single isomer, unassigned) [#121, N-[4-(trifluoromethyl)phenyl]-2-[1,3,7-trimethyl-2,6-dioxo-7H-pyrido[3,2-d][3]benzazepin-5-yl]acetamide] | < 15.8 | < 15.8
Cc1cc2c(c(C)n1)-c1ccc(C)nc1CC(=O)N2CC(=O)Nc1ccc(C(F)(F)F)cc1 [#70, N-[4-(trifluoromethyl)phenyl]-2-(3,5,13-trimethyl-9-oxo-4,8,12-triazatricyclo[9.4.0.0^2,7]pentadeca-1(11),2(7),3,5,12,14-hexaen-8-yl)acetamide] | 39.8 to 100 | 
Cc1cc2c(c(F)n1)-c1cccnc1[C@@H](C)C(=O)N2CC(=O)Nc1cc(F)c(Cl)cc1F [#245, N-(4-chloro-2,5-difluoro-phenyl)-2-[(10R)-3-fluoro-5,10-dimethyl-9-oxo-4,8,12-triazatricyclo[9.4.0.0^2,7]pentadeca-1(15),2,4,6,11,13-hexaen-8-yl]acetamide] | 15.8 to 39.8 | 

More lines, now with the values ahead:

IC50 (system Xc^− [1]) [nM] | IC50 (system Xc^− [2]) [nM] | SMILES
< 15.8 |  | O=C(CN1C(=O)C(O)c2ncc(F)cc2-c2c(F)cc(F)cc21)Nc1ccc(C(F)F)cc1 (single isomer, unassigned) [#318, N-[4-(difluoromethyl)phenyl]-2-[2,9,11-trifluoro-5-hydroxy-6-oxo-5H-pyrido[2,3-d][1]benzazepin-7-yl]acetamide]
< 15.8 |  | CC1C(=O)N(CC(=O)Nc2ccc(C(F)F)cc2)c2cc(N3CC(F)(F)C3)nc(Cl)c2-c2cccnc21 (centres unmarked) [#292, 2-[3-chloro-5-(3,3-difluoroazetidin-1-yl)-10-methyl-9-oxo-4,8,12-triazatricyclo[9.4.0.0^2,7]pentadeca-1(15),2,4,6,11,13-hexaen-8-yl]-N-[4-(difluoromethyl)phenyl]acetamide]
39.8 to 100 |  | COc1ccc2c(c1)N(CC(=O)Nc1ccc(C(F)F)cc1)C(=O)C(C)c1ncccc1-2 (centres unmarked) [#305, N-[4-(difluoromethyl)phenyl]-2-(9-methoxy-5-methyl-6-oxo-5H-pyrido[2,3-d][1]benzazepin-7-yl)acetamide]
< 15.8 |  | CC1C(=O)N(CC(=O)Nc2ccc(C(F)F)cc2)c2cc(C(F)F)nc(Cl)c2-c2cccnc21 (centres unmarked) [#338, 2-[3-chloro-5-(difluoromethyl)-10-methyl-9-oxo-4,8,12-triazatricyclo[9.4.0.0^2,7]pentadeca-1(11),2(7),3,5,12,14-hexaen-8-yl]-N-[4-(difluoromethyl)phenyl]acetamide]
39.8 to 100 |  | O=C(CN1C(=O)Cc2cc(Cl)ccc2-c2c1cc(C1CC1)nc2Cl)Nc1ccc(C(F)F)cc1 [#340, 2-(1,9-dichloro-3-cyclopropyl-6-oxo-7H-pyrido[4,3-d][3]benzazepin-5-yl)-N-[4-(difluoromethyl)phenyl]acetamide]
15.8 to 39.8 |  | CC1C(=O)N(CC(=O)Nc2ccc(Cl)c(F)c2)c2cc(C3(F)CN(C)C3)nc(Cl)c2-c2cccnc21 (centres unmarked) [#422, 2-[3-chloro-5-(3-fluoro-1-methyl-azetidin-3-yl)-10-methyl-9-oxo-4,8,12-triazatricyclo[9.4.0.0^2,7]pentadeca-1(11),2,4,6,12,14-hexaen-8-yl]-N-(4-chloro-3-fluoro-phenyl)acetamide]
